The subject of experiment [1] is COS-1 cells expressing NRP1 and Plexin-A1. The experiment is described as follows: COS cellular collapses triggered by Sema3A. Conditions: peptide 10^−9 M, 1 hour pre-incubation, Sema 3A 4 hours. In kind it is cell-based. As to the method: Nevertheless, the artificial expression of NRP1 and Plexin-A1 in COS cells allows Sema 3A to trigger cellular collapses. To investigate the effect of the pTM-NRP1 peptide on the Sema3A functional properties, the shape of COS cells expressing NRP1 and Plexin-A1 was analyzed in the presence or not of Sema 3A and of pTM-NRP1 or pTM-NRP1^mut peptide.
COS-1 cells have been transfected by 1 μg of pBK-CMV (STRATAGENE) plasmids containing NRP1 and plexin-A1 coding sequences (provided by Pr. PUSCHEL; MUNSTER Universitat, Germany) with LIPOFECTAMINE 2000 (IN VITROGEN) according to the manufacturer's instructions in 6-well plates. Stably COS-1 transfected cells have been selected with 0.7% geneticine. Stably transfected COS-1 cells have been cultured on 12-well plates with previously poly-L-lysine-coated glass coverslips. Cells have been then incubated 1 hour with pTM-NRP1 or pTM-NRP1^mut peptide (10^−9M) at 37° C. The culture medium has been then removed and replaced by conditioned medium of HEK cells stably transfected or not with a construction expressing Sema 3A (100 μl/ml D-MEM) for 4 hours at 37° C. Finally, cells have been fixed with 2% formaldehyde for 30 minutes followed by 15 minutes in formaldehyde 4%. For each condition tested, about 400 cells have been analyzed.

In experiment [2] the target is T1, NRP1 (Homo sapiens, UniProt O14786).
T1 construct: mutations were introduced into the TM domain of a full length NRP1; expressed in transfected cells; host or cells: COS-1 cells, pBK-CMV plasmid (cDNA provided by Pr. Puschel)
T1 sequence (O14786 22-923): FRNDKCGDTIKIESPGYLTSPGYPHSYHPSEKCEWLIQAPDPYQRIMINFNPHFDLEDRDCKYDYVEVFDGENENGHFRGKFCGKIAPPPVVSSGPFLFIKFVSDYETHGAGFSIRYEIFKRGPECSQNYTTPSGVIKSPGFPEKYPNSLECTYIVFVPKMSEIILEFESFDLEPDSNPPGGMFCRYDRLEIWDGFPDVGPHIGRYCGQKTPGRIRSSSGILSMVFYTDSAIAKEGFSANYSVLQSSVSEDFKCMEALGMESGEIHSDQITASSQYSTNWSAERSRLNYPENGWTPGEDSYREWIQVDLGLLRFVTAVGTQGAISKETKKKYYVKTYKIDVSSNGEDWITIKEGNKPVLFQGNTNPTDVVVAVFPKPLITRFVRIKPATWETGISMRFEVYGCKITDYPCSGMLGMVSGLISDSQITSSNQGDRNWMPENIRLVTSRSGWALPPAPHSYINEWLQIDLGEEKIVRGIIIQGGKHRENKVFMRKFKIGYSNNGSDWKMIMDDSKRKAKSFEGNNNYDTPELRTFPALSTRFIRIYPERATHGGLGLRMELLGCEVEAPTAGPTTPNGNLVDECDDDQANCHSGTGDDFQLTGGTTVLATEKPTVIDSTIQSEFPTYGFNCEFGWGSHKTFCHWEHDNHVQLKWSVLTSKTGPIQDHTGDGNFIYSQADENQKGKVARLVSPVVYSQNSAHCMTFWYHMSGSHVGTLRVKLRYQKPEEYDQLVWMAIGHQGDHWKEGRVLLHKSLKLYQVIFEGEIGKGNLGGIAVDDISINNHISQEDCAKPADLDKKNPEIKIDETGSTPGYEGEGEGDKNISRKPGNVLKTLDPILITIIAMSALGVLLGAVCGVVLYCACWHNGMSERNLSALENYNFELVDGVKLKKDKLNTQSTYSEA
The experiment is described as follows: AP-Sema3A binding to NRP1-expressing COS cells (optical density per cell). Conditions: peptide 10^−9 M, 1 hour pre-incubation. How it is done: NRP1 expressing COS cells were incubated with AP-Sema3A, a fusion protein of Sema3A and the secreted alkaline phosphatase (BAGNARD et al., 1998).
Wild-type COS cells or NRP1-expressing COS cells (COS-NRP1) were cultured on 12-wells plates on poly-L-lysine-coated glass coverslips (0.005 mg/ml). After one-hour incubation with pTM-NRP1 or pTM-NRP1^mut (10^−9M) in serum-free medium at 37° C., the culture medium was replaced by conditioned medium containing alkaline phosphatase-coupled Sema3A (AP-Sema3A; BAGNARD et al., 1998) obtained from AP-Sema3A stably expressing HEK cells for 90 mn. Conditioned medium without semaphorin served as a control (obtained from non-transfected HEK). Cells were washed three times with PBS and fixed in 4% formaldehyde before transfer in a new dish. After three washes in PBS, the plate was warmed for 50 mn at 65° C. Cells were subsequently incubated with 1 ml of alkaline phosphatase substrate (NBT/BCIP, SIGMA) in the dark. After 45 mn, substrate was removed and glass coverslips were rinsed. Pictures were acquired with a conventional microscope and analyzed with AxioVision LE Zeiss software. For each condition tested, about 60 cells were analyzed to determine binding levels as a function of optical density. Statistical analysis was performed by using a Student's t test.

For experiment [3], the system named is VEGF165 signalling in C6 cells. Description: VEGF165-induced migration of C6 tumour cell aggregates in 3D matrix (plasma clot). In kind it is cell-based. Conditions: VEGF165 50 ng/ml, peptide 10^−8 M. How it is done: NRP1 is a receptor of VEGF (NEUFELD et al., Adv. Exp. Med. Biol., vol. 515, p: 81-90, 2002). We therefore verified that pTM-NRP1 can antagonize VEGF signalling in C6 cells. To this end, C6 tumour cell aggregates prepared as previously described (see BAGNARD et al., 1998; and NASARRE et al., Neoplasia, vol. 7, p: 180-189, 2005) were grown in the 3D matrix (plasma clot) and treated with VEGF165.

Experiment [4] concerns the target T2, NRP1 receptor complex (Rattus norvegicus, UniProt Q9QWJ9).
T2 construct: C6 cells expressing NRP1 and Plexin-A1 were incubated or not with the pTM-NRP1 peptide; endogenous in cells; host or cells: rat C6 glioma cells
The experiment is described as follows: Formation of NRP1 receptor complexes, sucrose density gradient sedimentation and western blot. In kind it is cell-based. Conditions: C6 cells expressing NRP1 and Plexin-A1, peptide 10^−9 M for 1 h. How it is done:
To further investigate the role of the transmembrane domain of the NRP1 receptor in the formation of the NRP1 receptor complex, the formation of NRP1 complexes has been determined on C6 cells expressing NRP1 and plexin-A1 in the presence or not of the transmembrane domain peptide of NRP1 (pTM-NRP1 peptide) and of the ligand Sema3A.
C6 cells expressing NRP1 and Plexin-A1 were incubated or not with the pTM-NRP1 peptide (10^−9 M) for 1 h. The culture medium has been then replaced of HER cells stably transfected or not with a construction expressing Sema 3A. Confluent C6 have been harvested with 10 mM EDTA and centrifuged. The pellet has been washed in PBS and then diluted in lysis buffer (Tris-HCL/NaCl; 50/150; pH 8.0) with 0.1% SDS, 1 mM EDTA, 1% NP-40, 0.5% DOC, 2 mM vanadate and proteases inhibitors without SDS (PIERCE). After solubilization for 1 h at 4° C., protein amount is estimated by bicinchoninic acid method (BCA Protein Assay, PIERCE).
Sucrose density gradient sedimentation experiments were based on a step gradient containing 25%, 17%, 10% and 3% sucrose. […]
The membrane has been then incubated 2 hours with polyclonal anti-NRP1 at a 1:1000 dilution (ONCOGENE). […] Immunoreactivity has been then detected with an enhanced chemoluminescence western blot detection system (PIERCE) according to the manufacturer's instructions. […]
For orientation: Immunoblotting shows a protein as a band on a membrane.

Regarding ILITIIAMSALGVLLGAVCGVVL [pTM-NRP1], the “effect on cellular collapses of COS-1 cells triggered by Sema 3A” value in experiment [1] is “completely abolished”. Also, the “binding of AP-Sema3A to NRP1-expressing COS cells” value in experiment [2] was “significantly reduced”. Also, the “VEGF165-dependent C6 cells migration out of aggregates” value in experiment [3] was “suppressed”. Besides, the “oligomerization of NRP1 in the presence of Sema 3A” value in experiment [4] is on record as “inhibited”.

For the origin of these results see patent US8956622B2, “Peptidic antagonists of class III semaphorins/neuropilins complexes” (INSERM—Institut National de la Sante et de la Recherche …, priority 2005, dated 2015).
